Measurements reported in patent publication US6284754A, “Pharmaceutical compositions containing 1-oleylazacycloheptan-2-one as enhancing agent of transport across biological membranes” (Schwarz Pharma AG, priority 1992, dated 2001).
pIC50: −log10 of the molar value.

Tests used:
[1] = test system: human dermal fibroblasts; experiment: Collagen contraction test (in vitro skin cell toxicity screening); assay type: cell-based; conditions: for pIC50: Fibroblast, collagen sheets containing human dermal fibroblasts, read-out: IC50 (concentration at which shrinkage is 50% of the control); for toxicity (in words): compared with other azones
Description: Skin toxicity tests were performed using the so-called collagen contraction test (Ponec et al. Journal of Pharmaceutical Sciences Vol. 78, No. 9, September 1989 and Vol. 79, No. 4, April 1990). […] The concentration of the agent, at which the shrinkage is 50% of the control, is taken as the IC50, the "50% inhibition level".

[2] = sole anti-inflammatory agent, topical on human or animal skin, about 10 to 100%; cited from earlier work
[3] = Skin transport kinetics: nitroglycerin penetration through stratum corneum pretreated with 1-alkylazacycloheptan-2-ones; assay type: in vitro ADME, human; conditions: compared with other 1-alkylazacycloheptan-2-ones
Description: Human stratum corneum samples (18 mm in diameter) were obtained from fresh human skin (abdomen) by trypsinization. The stratum corneum samples were firstly prehydrated at 95% relative humidity (RH) over a saturated disodium hydrogen phosphate solution, then either submerged for 24 hours at 34° C. with 200 microliter of a 10% solution of an alkyl-aza-cycloheptan-one in propylene glycol by topical application, or directly used for a diffusion study.
The stratum corneum samples were subsequently sandwiched between silastic sheetings (127 micrometer thick silicone membranes, Dow Corning) which have been proven not to control the transport rate of the model drug used in the study, nitroglycerin. The thus obtained sandwiches were clamped in two-chamber flow-through diffusion cells and subjected to 24 hours diffusion experiments. The donor compartment having a volume of 16μl was flushed with a 0.05% nitroglycerin solution at a pumping rate of 35 ml/hr. […] Fractions of the acceptor fluid were collected at 1 hour intervals, and nitroglycerin was detected using a reversed phase HPLC procedure (chrom-sphere C18 100×30 mm column eluted at 22° C. (methanol:water=1:1) at a 1.1 ml/min flow rate (Spectroflow 400, Kratos.). The absorbance at 201 nm of the effluent was monitored on Waters 450 var. wavelength detector).

[4] = Differential thermal analysis (DTA) of pretreated stratum corneum; design: species or system human; conditions: 24 h pretreatment in enhancer solution
Description: For differential thermal analysis human stratum corneum samples were pretreated (after prehydration) by submersion in the in test 1 described enhancer solutions for 24 hours, using untreated prehydrated stratum corneum samples as controls. Differential thermal analysis of ca. 20 mg samples was then performed on a differential scanning calorimeter (Maple).

[5] = Freeze-fracture electron microscopy of pretreated stratum corneum; conditions: 24 h pretreatment with solution in propylene glycol
Description: For freeze-fracture electron microscopy stratum corneum samples were pretreated during 24 hours with solutions of azacycloheptanones in propylene glycol by applying about 200 microliter per cm^2 of the solution on the apical surface. Samples were then snapfrozen in melting nitrogen (method according to Umrath, J. Microsc. 101: 103 (1974)), cross-fractured (Holman et al., J. Invest. Dermatol, 94: 332 (1990) )in a Balzers Freeze Fracture apparatus (Balzers 400 BAF) at high vacuum. The fracture surfaces were then shadowed with Pt and overcast with a layer of carbon. Upon thawing, the samples were cleaned to obtain the surface replicas. These were scooped up on copper grids and examined in a transmission electron microscope (Philips 401, operated at 80 kV).

| Structure (SMILES) | pIC50 [1] | anti-inflammatory action, topical (in words) [2] | enhancement of nitroglycerin transport / percutaneous absorption (in words) [3] | enhancement of nitroglycerin transport / percutaneous absorption (in words) ([3]; listed as oleyl derivative) | influence on gel-liquid transition temperature and transition enthalpy (in words) [4] | transition enthalpy of the intercellular lipids (gel-liquid transition) ([4]; control 7 J.g-1) | electron microscopic findings in stratum corneum (in words) [5] | toxicity (in words) ([1]; listed as 1-oleyl-azacyclo-heptan-2-one) | toxicity (in words) ([1]; listed as 1-oleylazacycloheptan-2-one) | toxicity (in words) ([1]; listed as oleyl azone) |
| --- | --- | --- | --- | --- | --- | --- | --- | --- | --- | --- |
| CCCCCCCCCCCCN1CCCCCC1=O [C12, 1-dodecylazacycloheptan-2-one, reference compound] | 3.62 | capable of temporarily reducing the signs and symptoms of inflammation | – | – | – | – | – | – | – | – |
| CCCCCCCC/C=C\CCCCCCCCN1CCCCCC1=O [C18, 1-oleylazacycloheptan-2-one] | 3.10 | – | more potent enhancer for percutaneous absorption than the 1-alkylazacycloheptan-2-ones according to the prior art | by far the most potent enhancer with respect to nitroglycerin transport | strongly influences both the gel-liquid transition temperature of the intercellular lipids, and the corresponding transition enthalpy | 3.3 J/g | penetrates deeply into the stratum corneum and induces the separation of a non-lamellar phase | moderately toxic | less toxic than the 1-dodecylazacycloheptan-2-one | almost the least toxic azone among the effective enhancers (from C10 up to C18), and less toxic than C12 azone |
